Source: patent publication US10604523B2, “1-aryl-4-methyl-[1,2,4]triazolo[4,3-a]quinoxaline derivatives” (Janssen Pharmaceutica NV, priority 2011, dated 2020)
Like-named read-outs stand apart in the source and are kept apart here.

Tests used:
[1] = biological target: T1, Human recombinant PDE2A (hPDE2A) (Homo sapiens, UniProt O00408); test: In vitro assay PDE2A (SPA, 3H-cGMP); assay type: biochemical; conditions: read-out: pIC50 PDE2 (converted)
T1 construct: made in house; host or cells: Sf9 insect cells (baculovirus)
T1 sequence (O00408 whole entry): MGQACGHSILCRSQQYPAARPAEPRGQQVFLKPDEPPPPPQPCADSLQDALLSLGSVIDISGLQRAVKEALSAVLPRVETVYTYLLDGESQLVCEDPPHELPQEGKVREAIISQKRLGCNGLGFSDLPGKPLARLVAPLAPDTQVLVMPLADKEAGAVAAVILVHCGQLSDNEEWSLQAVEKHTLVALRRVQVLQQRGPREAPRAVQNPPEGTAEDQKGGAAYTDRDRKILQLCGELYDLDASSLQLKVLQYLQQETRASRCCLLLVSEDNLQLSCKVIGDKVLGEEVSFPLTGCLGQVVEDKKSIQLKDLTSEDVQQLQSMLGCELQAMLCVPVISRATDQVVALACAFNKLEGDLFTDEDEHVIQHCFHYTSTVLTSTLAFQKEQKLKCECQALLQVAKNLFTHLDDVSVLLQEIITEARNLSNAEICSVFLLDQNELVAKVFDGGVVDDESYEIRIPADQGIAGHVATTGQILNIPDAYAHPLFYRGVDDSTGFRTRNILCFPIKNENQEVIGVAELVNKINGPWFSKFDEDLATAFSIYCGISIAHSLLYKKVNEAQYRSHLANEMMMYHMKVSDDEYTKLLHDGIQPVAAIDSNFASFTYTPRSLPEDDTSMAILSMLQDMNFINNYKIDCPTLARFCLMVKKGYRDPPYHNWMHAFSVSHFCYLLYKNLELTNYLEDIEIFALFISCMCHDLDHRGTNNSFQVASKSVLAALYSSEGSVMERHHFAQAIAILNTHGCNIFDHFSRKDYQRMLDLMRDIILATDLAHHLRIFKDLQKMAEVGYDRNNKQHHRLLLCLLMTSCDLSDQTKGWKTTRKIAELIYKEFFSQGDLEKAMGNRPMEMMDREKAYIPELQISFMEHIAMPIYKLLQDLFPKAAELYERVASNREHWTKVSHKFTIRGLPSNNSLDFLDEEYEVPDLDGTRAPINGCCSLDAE
Protocol: Tested compounds were dissolved and diluted in 100% DMSO to a concentration 100 fold of the final concentration in the assay. Compound dilutions (0.4 μl) were added in 384 well plates to 20 μl of incubation buffer (50 mM Tris pH 7.8, 8.3 mM MgCl2, 1.7 mM EGTA). 10 μl of hPDE2A enzyme in incubation buffer was added and the reaction was started by addition of 10 μl substrate to a final concentration of 10 μM cGMP and 0.01 μCi ^3H-cGMP. The reaction was incubated for 45 minutes at room temperature. […] After sedimentation of the beads during 30 minutes the radioactivity was measured in a Perkin Elmer Topcount scintillation counter and results were expressed as cpm. For blanc values the enzyme was omitted from the reaction and replaced by incubation buffer. Control values were obtained by addition of a final concentration of 1% DMSO instead of compound.

[2] = biological target: T2, Rat recombinant PDE10A (rPDE10A2) (Rattus norvegicus, UniProt Q9QYJ6); test: In vitro assay PDE10A (SPA, 3H-cAMP); assay type: biochemical; conditions: for IC50: read-out: PIC50 PDE10 (converted)
T2 construct: made in house; host or cells: Sf9 insect cells (baculovirus)
T2 sequence (Q9QYJ6 1-794): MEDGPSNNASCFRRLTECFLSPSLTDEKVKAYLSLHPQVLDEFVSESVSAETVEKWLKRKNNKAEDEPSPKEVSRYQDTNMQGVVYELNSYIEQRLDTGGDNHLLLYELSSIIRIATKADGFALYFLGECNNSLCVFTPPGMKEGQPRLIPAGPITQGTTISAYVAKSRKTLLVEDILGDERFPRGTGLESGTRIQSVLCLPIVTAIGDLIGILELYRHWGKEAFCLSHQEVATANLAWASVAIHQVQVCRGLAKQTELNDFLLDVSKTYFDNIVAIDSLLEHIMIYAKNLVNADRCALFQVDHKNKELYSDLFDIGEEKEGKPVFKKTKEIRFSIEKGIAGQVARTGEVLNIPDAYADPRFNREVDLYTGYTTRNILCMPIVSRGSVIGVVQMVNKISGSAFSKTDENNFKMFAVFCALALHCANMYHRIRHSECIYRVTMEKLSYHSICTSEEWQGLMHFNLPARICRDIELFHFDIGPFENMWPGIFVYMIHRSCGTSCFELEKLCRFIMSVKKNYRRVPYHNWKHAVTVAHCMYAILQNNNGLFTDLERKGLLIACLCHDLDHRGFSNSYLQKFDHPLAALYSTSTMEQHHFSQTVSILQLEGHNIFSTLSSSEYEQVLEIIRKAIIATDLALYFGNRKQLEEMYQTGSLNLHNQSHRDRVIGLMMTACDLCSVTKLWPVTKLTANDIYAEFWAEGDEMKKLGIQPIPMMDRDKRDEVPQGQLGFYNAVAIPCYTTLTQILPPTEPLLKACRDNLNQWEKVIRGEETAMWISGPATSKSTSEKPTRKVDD

[3] = tested on: Apomorphine-induced agitation; test: Reversal of Apomorphine-induced Agitation in Rats (APO); assay type: in vivo, rat; conditions: for SC Dose at max effect / SC Max effect (cumulative agitation score over 60 min) / SC LAD (lowest active dose): subcutaneous route
Protocol: Apomorphine (1.0 mg/kg, i.v.)-induced agitation was scored every 5 min over the first hour after injection of apomorphine. The score system was: (3) pronounced, (2) moderate, (1) slight, and (0) absent. […] For the present purpose, the cumulative agitation score over the whole 60-min observation period was used as a measure to describe the maximum effect (Max effect).

[4] = -log IC50 expressed in mol/L, rPDE10A2, 60 nM cAMP
[5] = lowest dose at which ≥67% tested animals respond

| SMILES | IC50 [1] [nM] | IC50 [2] [nM] | other results |
| --- | --- | --- | --- |
| CCOC(=O)c1ccc2c(c1)nc(C)c1nnc(-c3ccccc3Cl)n12 [Compound B-1b, ethyl 1-(2-chlorophenyl)-4-methyl[1,2,4]triazolo[4,3-a]quinoxaline-7-carboxylate] | 51.3 | 447 |  |
| CCCCOc1cncc(-c2nnc3c(C)nc4ccc(Br)cc4n23)c1 [Compound B-7, 8-Bromo-1-(5-butoxypyridin-3-yl)-4-methyl[1,2,4]triazolo[4,3-a]quinoxaline] | 18.6 | 3390 |  |
| Cc1nc2ccc(C(=O)OCc3ccccc3)cc2n2c(-c3ccccc3)nnc12 [Compound B-8, Benzyl 4-methyl-1-phenyl[1,2,4]triazolo[4,3-a]quinoxaline-8-carboxylate] | 20.4 | 380 |  |
| Cc1nc2ccc(C(N3CCOCC3)C(F)(F)F)cc2n2c(-c3ccccc3Cl)nnc12 (stereo not shown) [Compound B-22, 1-(2-Chlorophenyl)-4-methyl-8-(2,2,2-trifluoro-1-morpholin-4-ylethyl) [1,2,4]triazolo[4,3-a]quinoxaline] | 7.76 | 89.1 |  |
| Cc1ccncc1-c1nnc2c(C)nc3ccc(C(=O)C4CC4)cc3n12 [Compound B-24, Cyclopropyl [4-methyl-1-(4-methylpyridin-3-yl) [1,2,4]triazolo[4,3-a]quinoxalin-8-yl]methanone] | 39.8 | 525 |  |
| CCCCOc1ccc(Cl)c(-c2nnc3c(C)nc4ccc(N5CCN(C)CC5)cc4n23)c1 [Compound B-26, 1-(5-Butoxy-2-chlorophenyl)-4-methyl-8-(4-methylpiperazin-1-yl) [1,2,4]triazolo-[4,3-a]quinoxaline] | 17.4 | 1260 |  |
| Cc1nc2ccc(N)cc2n2c(-c3ccccc3Cl)nnc12 [Compound B-27, 1-(2-Chlorophenyl)-4-methyl[1,2,4]triazolo[4,3-a]quinoxalin-8-amine] | 2.34 | 29.5 |  |
| CCC(=O)Nc1ccc2nc(C)c3nnc(-c4ccccc4Cl)n3c2c1 [Compound B-28, N-[1-(2-Chlorophenyl)-4-methyl[1,2,4]triazolo[4,3-a]quinoxalin-8-yl]propanamide] | 2.29 | 13.2 |  |
| Cc1nc2ccc(CO)cc2n2c(-c3ccccc3)nnc12 [Compound B-29, (4-Methyl-1-phenyl[1,2,4]triazolo[4,3-a]quinoxalin-8-yl)methanol] | 44.7 | 380 |  |
| Cc1nc2ccc(Oc3ccncc3)cc2n2c(-c3ccccc3Cl)nnc12 [Compound B-30, 1-(2-Chlorophenyl)-4-methyl-8-(pyridin-4-yloxy)[1,2,4]triazolo[4,3-a]quinoxaline] | 5.75 | 24.5 |  |
| Cc1nc2ccc(C(=O)NCc3cc(F)ccn3)cc2n2c(-c3ccccc3Cl)nnc12 [Compound B-31] | 0.204 | 8.13 |  |
| COCCNC(=O)c1ccc2nc(C)c3nnc(-c4ccccc4Cl)n3c2c1 [Compound B-37] | 0.631 | 20.4 |  |
| CCNC(c1ccc2nc(C)c3nnc(-c4ccccc4Cl)n3c2c1)C(F)(F)F (stereo not shown) [Compound B-64] | 5.75 | 30.2 |  |
| COc1ccc(Cl)c(-c2nnc3c(C)nc4ccc(Br)cc4n23)c1 [Compound B-69] | 6.17 | 77.6 |  |
| CCCOc1ccc(Cl)c(-c2nnc3c(C)nc4ccc(CN5CCOCC5)cc4n23)c1 [Compound B-72] |  |  | PIC50 PDE10 [2, 4]: 6.49; SC Dose at max effect [3]: 10 mg/kg; SC Max effect (cumulative agitation score over 60 min) ([3]; apomorphine 1.0 mg/kg i.v.): 23; SC LAD (lowest active dose) [3, 5]: > 10 mg/kg |
| CCCCOc1ccc(Cl)c(-c2nnc3c(C)nc4ccc(CN5CCCC5)cc4n23)c1 [Compound B-79] | 8.13 | 1910 |  |
| Cc1nc2ccc(CN3CCOCC3)cc2n2c(-c3ccc(F)cc3Cl)nnc12 [Compound B-82] |  | 85.1 | SC Dose at max effect [3]: 10 mg/kg; SC Max effect (cumulative agitation score over 60 min) ([3]; apomorphine 1.0 mg/kg i.v.): 9; SC LAD (lowest active dose) [3, 5]: 2.5 mg/kg |
| COc1ccc(Cl)c(-c2nnc3c(C)nc4ccc(CN5CCOCC5)cc4n23)c1 [Compound B-84] |  |  | IC50 [2, 4]: 105 nM; PO Dose at Max Effect ([3]; oral route): 10 mg/kg; PO Max effect (cumulative agitation score over 60 min) ([3]; oral route, apomorphine 1.0 mg/kg i.v.): 21; PO LAD (lowest active dose) ([3]; oral route, lowest dose at which ≥67% tested animals respond): > 10 mg/kg |
| COC1CCCN(Cc2ccc3nc(C)c4nnc(-c5ccccc5Cl)n4c3c2)C1 (stereo not shown) [Compound B-86] | 11 | 38 |  |
| COc1cncc(-c2nnc3c(C)nc4ccc(CN5CCOCC5)cc4n23)c1 [Compound B-91] |  |  | PIC50 PDE10 [2, 4]: 6.57; SC Dose at max effect [3]: 10 mg/kg; SC Max effect (cumulative agitation score over 60 min) ([3]; apomorphine 1.0 mg/kg i.v.): 21; SC LAD (lowest active dose) [3, 5]: > 10 mg/kg |
| COC1CCN(Cc2ccc3nc(C)c4nnc(-c5ccccc5Cl)n4c3c2)CC1 [Compound B-93] |  |  | PIC50 PDE10 [2, 4]: 7.41; SC Dose at max effect [3]: 10 mg/kg; SC Max effect (cumulative agitation score over 60 min) ([3]; apomorphine 1.0 mg/kg i.v.): 7; SC LAD (lowest active dose) [3, 5]: 10 mg/kg |

More lines, main results first:

| IC50 [1] [nM] | IC50 [2] [nM] | SMILES | other results |
| --- | --- | --- | --- |
| 11.2 | 26.9 | Cc1nc2ccc(N(C)C)cc2n2c(-c3ccccc3Cl)nnc12 [Compound B-87] |  |
| 14.5 | 191 | Cc1nc2ccc(COc3ccccc3)cc2n2c(-c3ccccc3)nnc12 [Compound B-98] |  |
| 14.8 | 1230 | Cc1nc2ccc(Br)cc2n2c(-c3cc(OC(C)C)ccc3Cl)nnc12 [Compound B-100] |  |
| 19.1 | 1450 | CCCCOc1ccc(Cl)c(-c2nnc3c(C)nc4ccc(CN5CCC(O)CC5)cc4n23)c1 [Compound B-105] |  |
| 19.5 | 89.1 | COCCC1CN(Cc2ccc3nc(C)c4nnc(-c5ccccc5Cl)n4c3c2)CCO1 (stereo not shown) [Compound B-106] |  |
|  | 107 | Cc1nc2ccc(CN(C)C)cc2n2c(-c3ccccc3Cl)nnc12 [Compound B-107] | SC Dose at max effect [3]: 10 mg/kg; SC Max effect (cumulative agitation score over 60 min) ([3]; apomorphine 1.0 mg/kg i.v.): 20.5; SC LAD (lowest active dose) [3, 5]: > 10 mg/kg |
|  | 44.7 | Cc1nc2ccc(CN3CCCC(CO)C3)cc2n2c(-c3ccccc3Cl)nnc12 (stereo not shown) [Compound B-110] | SC Dose at max effect [3]: 10 mg/kg; SC Max effect (cumulative agitation score over 60 min) ([3]; apomorphine 1.0 mg/kg i.v.): 21; SC LAD (lowest active dose) [3, 5]: > 10 mg/kg |
| 24.5 | 1120 | Cc1nc2ccc(N3CCN(C)CC3)cc2n2c(-c3cc(OC(C)C)ccc3Cl)nnc12 [Compound B-115] |  |
| 24.5 | 513 | CCCOc1ccc(Cl)c(-c2nnc3c(C)nc4ccc(OCCc5cccnc5)cc4n23)c1 [Compound B-116] |  |
| 25.1 | 912 | CCCOc1ccc(Cl)c(-c2nnc3c(C)nc4ccc(N5CCN(C)CC5)cc4n23)c1 [Compound B-117] |  |
| 27.5 | 331 | Cc1nc2ccc(C(=O)OCCc3ccccc3)cc2n2c(-c3ccccc3)nnc12 [Compound B-122] |  |
| 27.5 | 417 | CCNC(=O)c1ccc2nc(C)c3nnc(-c4cccnc4OC)n3c2c1 [Compound B-123] |  |
| 27.5 | 355 | COc1cncc(-c2nnc3c(C)nc4ccc(Br)cc4n23)c1 [Compound B-124] |  |
| 27.5 | 3090 | Cc1nc2ccc(Br)cc2n2c(-c3cncc(OCC4CC4)c3)nnc12 [Compound B-125] |  |
| 28.2 | 2450 | CCCCOc1ccc(Cl)c(-c2nnc3c(C)nc4ccc(CNC5CCC5)cc4n23)c1 [Compound B-126] |  |
| 28.8 | 891 | CCCOc1ccc(Cl)c(-c2nnc3c(C)nc4ccc(CN5CCC(O)CC5)cc4n23)c1 [Compound B-129] |  |
| 28.8 | 977 | CCCCOc1ccc(Cl)c(-c2nnc3c(C)nc4ccc(OCCc5cccnc5)cc4n23)c1 [Compound B-130] |  |
| 29.5 | 1780 | CCCCOc1ccc(Cl)c(-c2nnc3c(C)nc4ccc(CN5CCC(F)CC5)cc4n23)c1 [Compound B-132] |  |
| 30.2 | 1230 | Cc1nc2ccc(CNc3cccnc3)cc2n2c(-c3cc(OC(C)C)ccc3Cl)nnc12 [Compound B-133] |  |
| 30.2 | 1100 | Cc1nc2ccc(CN3CCC(F)CC3)cc2n2c(-c3cc(OC(C)C)ccc3Cl)nnc12 [Compound B-134] |  |
|  | 316 | CCOc1ccc(Cl)c(-c2nnc3c(C)nc4ccc(CN(C)C)cc4n23)c1 [Compound B-142] | SC Dose at max effect [3]: 10 mg/kg; SC Max effect (cumulative agitation score over 60 min) ([3]; apomorphine 1.0 mg/kg i.v.): 22; SC LAD (lowest active dose) [3, 5]: > 10 mg/kg |
| 138 |  | Cc1ncccc1-c1nnc2c(C)nc3ccccc3n12 [Compound B-174] |  |
| 162 |  | Cc1cncc(-c2nnc3c(C)nc4ccccc4n23)c1 [Compound B-177] |  |
| 316 |  | Cc1nc2ccccc2n2c(-c3cncc(Cl)c3)nnc12 [Compound B-183] |  |
